# Source: ChEMBL document CHEMBL3862012, “Methylene versus carbonyl bridge in the structure of new tubulin polymerization inhibitors with tricyclic A-rings” (Bioorg Med Chem, 2016)
# How the values were obtained:
# Assay type in all cases: functional
# [1] = Cytotoxicity against human HCC2998 cells assessed as growth inhibition at 10 uM after 48 hrs by SRB assay relative to control; conditions: HCC 2998, 48 h, read-out: GI
# [2] = Cytotoxicity against human SK-MEL-28 cells assessed as growth inhibition at 10 uM after 48 hrs by SRB assay relative to control; conditions: SK-MEL-28, 48 h, read-out: GI
# [3] = Cytotoxicity against human UACC62 cells assessed as growth inhibition at 10 uM after 48 hrs by SRB assay relative to control; conditions: UACC-62, 48 h, read-out: GI
# [4] = Cytotoxicity against human MOLT4 cells assessed as growth inhibition after 48 hrs by SRB assay; conditions: MOLT-4, 48 h
# [5] = Cytotoxicity against human RPMI8226 cells assessed as growth inhibition after 48 hrs by SRB assay; conditions: RPMI-8226, 48 h
# [6] = Cytotoxicity against human A549 cells assessed as growth inhibition after 48 hrs by SRB assay; conditions: A549, 48 h
# [7] = Cytotoxicity against human EKVX cells assessed as growth inhibition after 48 hrs by SRB assay
# [8] = Cytotoxicity against human HOP62 cells assessed as growth inhibition after 48 hrs by SRB assay; conditions: HOP-62, 48 h
# [9] = Cytotoxicity against human HOP92 cells assessed as growth inhibition after 48 hrs by SRB assay; conditions: HOP-92, 48 h
# [10] = Cytotoxicity against human NCI-H23 cells assessed as growth inhibition after 48 hrs by SRB assay; conditions: NCI-H23, 48 h
# [11] = Cytotoxicity against human COLO205 cells assessed as growth inhibition after 48 hrs by SRB assay; conditions: COLO 205, 48 h
# [12] = Cytotoxicity against human HCT116 cells assessed as growth inhibition after 48 hrs by SRB assay; conditions: HCT-116, 48 h
# [13] = Cytotoxicity against human HCT15 cells assessed as growth inhibition after 48 hrs by SRB assay; conditions: HCT-15, 48 h
# [14] = Cytotoxicity against human KM12 cells assessed as growth inhibition after 48 hrs by SRB assay; conditions: KM12, 48 h
# [15] = Cytotoxicity against human SF539 cells assessed as growth inhibition after 48 hrs by SRB assay; conditions: SF-539, 48 h
# [16] = Cytotoxicity against human U251 cells assessed as growth inhibition after 48 hrs by SRB assay; conditions: U-251, 48 h
# [17] = Cytotoxicity against human M14 cells assessed as growth inhibition after 48 hrs by SRB assay; conditions: M14, 48 h
# [18] = Cytotoxicity against human MDA-MB-435 cells assessed as growth inhibition after 48 hrs by SRB assay; conditions: MDA-MB-435, 48 h
# [19] = Cytotoxicity against human OVCAR4 cells assessed as growth inhibition after 48 hrs by SRB assay; conditions: OVCAR-4, 48 h
# [20] = Cytotoxicity against human OVCAR5 cells assessed as growth inhibition after 48 hrs by SRB assay; conditions: OVCAR-5, 48 h
# [21] = Cytotoxicity against human SKOV3 cells assessed as growth inhibition after 48 hrs by SRB assay; conditions: SK-OV-3, 48 h
# [22] = Cytotoxicity against human IGROV1 cells assessed as growth inhibition after 48 hrs by SRB assay; conditions: IGROV-1, 48 h
# [23] = Cytotoxicity against human A498 cells assessed as growth inhibition after 48 hrs by SRB assay; conditions: A498, 48 h
# [24] = Cytotoxicity against human Caki1 cells assessed as growth inhibition after 48 hrs by SRB assay; conditions: CAKI-1, 48 h
# [25] = Cytotoxicity against human SN12C cells assessed as growth inhibition after 48 hrs by SRB assay
# [26] = Cytotoxicity against human 786-0 cells assessed as growth inhibition after 48 hrs by SRB assay; conditions: 786-0, 48 h
# [27] = Cytotoxicity against human DU145 cells assessed as growth inhibition after 48 hrs by SRB assay; conditions: DU-145, 48 h
# [28] = Cytotoxicity against human MCF7 cells assessed as growth inhibition after 48 hrs by SRB assay; conditions: MCF7, 48 h
# [29] = Cytotoxicity against human Hs 578T cells assessed as growth inhibition after 48 hrs by SRB assay
# [30] = Cytotoxicity against human BT549 cells assessed as growth inhibition after 48 hrs by SRB assay; conditions: BT-549, 48 h
# [31] = Cytotoxicity against human MDA-MB-468 cells assessed as growth inhibition after 48 hrs by SRB assay; conditions: MDA-MB-468, 48 h
# [32] = Cytotoxicity against human OVCAR8 cells assessed as growth inhibition at 10 uM after 48 hrs by SRB assay relative to control; conditions: OVCAR-8, 48 h, read-out: GI
# [33] = Cytotoxicity against human MALME-3M cells assessed as growth inhibition after 48 hrs by SRB assay
compound,measurement,setting,value
COc1ccc(CN2c3ccccc3CCc3ccccc32)cc1F,inhibition of growth at 10 µM,[1],69%
same,inhibition of growth at 10 µM,[2],49%
same,inhibition of growth at 10 µM,[3],75%
same,GI50,[4],554 nM
same,GI50,[5],644 nM
same,GI50,[6],732 nM
same,GI50,[7],1550 nM
same,GI50,[8],529 nM
same,GI50,[9],587 nM
same,GI50,[10],672 nM
same,GI50,[11],335 nM
same,GI50,[12],413 nM
same,GI50,[13],428 nM
same,GI50,[14],387 nM
same,GI50,[15],287 nM
same,GI50,[16],496 nM
same,GI50,[17],354 nM
same,GI50,[18],187 nM
same,GI50,[19],868 nM
same,GI50,[20],1900 nM
same,GI50,[21],471 nM
same,GI50,[22],1570 nM
same,GI50,[23],339 nM
same,GI50,[24],549 nM
same,GI50,[25],1950 nM
same,GI50,[26],572 nM
same,GI50,[27],481 nM
same,GI50,[28],352 nM
same,GI50,[29],487 nM
same,GI50,[30],746 nM
same,GI50,[31],399 nM
COc1ccc(CN2c3ccccc3Sc3ccccc32)c(F)c1,inhibition of growth at 10 µM,[1],38%
same,inhibition of growth at 10 µM,[2],47%
same,inhibition of growth at 10 µM,[3],67%
same,GI50,[12],40 nM
same,GI50,[13],38 nM
same,GI50,[14],43 nM
same,GI50,[17],38 nM
same,GI50,[18],25 nM
same,GI50,[20],4390 nM
same,GI50,[22],46 nM
same,GI50,[25],10600 nM
same,GI50,[28],33 nM
COc1ccc(CN2c3ccccc3Sc3ccccc32)cc1F,inhibition of growth at 10 µM,[1],82%
same,inhibition of growth at 10 µM,[2],43%
same,inhibition of growth at 10 µM,[3],72%
same,inhibition of growth at 10 µM,[32],76%
same,GI50,[4],468 nM
same,GI50,[5],482 nM
same,GI50,[6],757 nM
same,GI50,[7],612 nM
same,GI50,[8],506 nM
same,GI50,[9],806 nM
same,GI50,[10],764 nM
same,GI50,[11],299 nM
same,GI50,[12],377 nM
same,GI50,[13],437 nM
same,GI50,[14],419 nM
same,GI50,[15],330 nM
same,GI50,[16],529 nM
same,GI50,[17],317 nM
same,GI50,[18],189 nM
same,GI50,[19],7250 nM
same,GI50,[21],475 nM
same,GI50,[22],1070 nM
same,GI50,[23],283 nM
same,GI50,[24],386 nM
same,GI50,[25],575 nM
same,GI50,[26],579 nM
same,GI50,[27],438 nM
same,GI50,[28],365 nM
same,GI50,[29],459 nM
same,GI50,[30],562 nM
same,GI50,[31],309 nM
COc1ccc(CN2c3ccccc3Sc3ccccc32)c(C(F)(F)F)c1,inhibition of growth at 10 µM,[32],69%
same,GI50,[4],288 nM
same,GI50,[5],3000 nM
same,GI50,[6],807 nM
same,GI50,[7],1200 nM
same,GI50,[8],604 nM
same,GI50,[9],227 nM
same,GI50,[10],1030 nM
same,GI50,[11],640 nM
same,GI50,[12],419 nM
same,GI50,[13],489 nM
same,GI50,[15],452 nM
same,GI50,[16],431 nM
same,GI50,[17],446 nM
same,GI50,[18],396 nM
same,GI50,[33],21000 nM
same,GI50,[19],2160 nM
same,GI50,[20],9750 nM
same,GI50,[21],5570 nM
same,GI50,[22],3430 nM
same,GI50,[23],372 nM
same,GI50,[24],1530 nM
same,GI50,[25],9730 nM
same,GI50,[26],9050 nM
same,GI50,[27],2080 nM
same,GI50,[28],349 nM
same,GI50,[29],877 nM
same,GI50,[30],3120 nM
same,GI50,[31],275 nM
COc1ccc(CN2c3ccccc3Oc3ccccc32)cc1F,inhibition of growth at 10 µM,[32],35%
COc1ccc(CN2c3ccccc3Sc3ccccc32)cc1O,inhibition of growth at 10 µM,[32],78%
same,GI50,[4],642 nM
same,GI50,[5],420 nM
same,GI50,[6],471 nM
same,GI50,[7],378 nM
same,GI50,[8],384 nM
same,GI50,[9],502 nM
same,GI50,[10],364 nM
same,GI50,[11],789 nM
same,GI50,[12],386 nM
same,GI50,[13],369 nM
same,GI50,[15],270 nM
same,GI50,[16],427 nM
same,GI50,[17],383 nM
same,GI50,[18],234 nM
same,GI50,[33],12200 nM
same,GI50,[19],726 nM
same,GI50,[20],12700 nM
same,GI50,[21],521 nM
same,GI50,[22],1930 nM
same,GI50,[23],2710 nM
same,GI50,[24],472 nM
same,GI50,[25],1290 nM
same,GI50,[26],838 nM
same,GI50,[27],374 nM
same,GI50,[28],355 nM
same,GI50,[29],933 nM
same,GI50,[30],773 nM
same,GI50,[31],531 nM
COc1ccc(CN2c3ccccc3Oc3ccccc32)cc1O,inhibition of growth at 10 µM,[32],64%
